Results published in patent US11697648B2, “Fused pyrimidine pyridinone compounds as JAK inhibitors” (THERAVANCE BIOPHARMA R&D IP, LLC, priority 2019, dated 2023).

Key:
JAK1 = JAK1 (Homo sapiens (Human), UniProt P23458); assay: Biochemical JAK1 kinase assay (LanthaScreen)
Summary of the method: (§1)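 GST-JAK + GFP-STAT1 peptide, HEPES pH 7.5/MgCl2/EGTA/Brij-35 buffer; cpd preincubation 1 h RT; ATP start, 1 h RT; stop with 10 mM EDTA + 2 nM Tb-anti-pSTAT1; TR-FRET 520/495. 4-parameter IC50 → pKi (Cheng-Prusoff).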

JAK2 = JAK2 (Homo sapiens (Human), UniProt O60674); assay: Biochemical JAK2 kinase assay (LanthaScreen)
Sequence of JAK2 (O60674 whole entry): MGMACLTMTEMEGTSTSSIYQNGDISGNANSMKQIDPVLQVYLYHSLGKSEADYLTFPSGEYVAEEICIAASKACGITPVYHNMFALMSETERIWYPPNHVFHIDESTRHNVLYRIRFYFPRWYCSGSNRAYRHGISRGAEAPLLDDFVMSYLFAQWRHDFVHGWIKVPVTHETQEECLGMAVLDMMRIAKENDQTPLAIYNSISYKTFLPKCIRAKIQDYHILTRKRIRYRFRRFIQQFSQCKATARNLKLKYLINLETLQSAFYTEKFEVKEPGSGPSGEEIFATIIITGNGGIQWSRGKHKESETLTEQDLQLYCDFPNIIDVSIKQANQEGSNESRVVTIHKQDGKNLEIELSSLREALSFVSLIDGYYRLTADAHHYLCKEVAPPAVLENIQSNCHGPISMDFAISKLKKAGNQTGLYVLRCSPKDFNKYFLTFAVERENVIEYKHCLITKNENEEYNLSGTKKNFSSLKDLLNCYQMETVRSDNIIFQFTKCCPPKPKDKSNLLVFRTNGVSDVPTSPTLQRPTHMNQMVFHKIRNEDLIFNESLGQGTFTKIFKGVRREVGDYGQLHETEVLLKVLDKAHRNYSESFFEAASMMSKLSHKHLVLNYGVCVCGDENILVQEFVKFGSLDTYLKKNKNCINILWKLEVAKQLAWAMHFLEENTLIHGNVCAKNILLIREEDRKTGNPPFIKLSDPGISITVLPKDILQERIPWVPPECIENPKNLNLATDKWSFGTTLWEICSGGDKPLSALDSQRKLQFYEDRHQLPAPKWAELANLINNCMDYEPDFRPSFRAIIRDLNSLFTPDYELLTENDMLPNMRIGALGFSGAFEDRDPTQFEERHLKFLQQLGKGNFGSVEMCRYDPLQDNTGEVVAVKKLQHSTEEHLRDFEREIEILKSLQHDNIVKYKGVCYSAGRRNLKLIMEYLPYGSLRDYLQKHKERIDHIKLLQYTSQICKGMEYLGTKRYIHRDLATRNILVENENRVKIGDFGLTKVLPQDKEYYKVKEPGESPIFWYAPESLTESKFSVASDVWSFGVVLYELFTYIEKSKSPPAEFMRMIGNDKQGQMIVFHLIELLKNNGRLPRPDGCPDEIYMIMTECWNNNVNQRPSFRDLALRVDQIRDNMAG
Summary of the method: as §1

JAK3 = JAK3 (Homo sapiens (Human), UniProt P52333); assay: Biochemical JAK3 kinase assay (LanthaScreen); conditions: for JAK3 (pKi)-JAK1 (pKi): selectivity JAK3 over JAK1, difference of pKi
Sequence of JAK3 (P52333 whole entry): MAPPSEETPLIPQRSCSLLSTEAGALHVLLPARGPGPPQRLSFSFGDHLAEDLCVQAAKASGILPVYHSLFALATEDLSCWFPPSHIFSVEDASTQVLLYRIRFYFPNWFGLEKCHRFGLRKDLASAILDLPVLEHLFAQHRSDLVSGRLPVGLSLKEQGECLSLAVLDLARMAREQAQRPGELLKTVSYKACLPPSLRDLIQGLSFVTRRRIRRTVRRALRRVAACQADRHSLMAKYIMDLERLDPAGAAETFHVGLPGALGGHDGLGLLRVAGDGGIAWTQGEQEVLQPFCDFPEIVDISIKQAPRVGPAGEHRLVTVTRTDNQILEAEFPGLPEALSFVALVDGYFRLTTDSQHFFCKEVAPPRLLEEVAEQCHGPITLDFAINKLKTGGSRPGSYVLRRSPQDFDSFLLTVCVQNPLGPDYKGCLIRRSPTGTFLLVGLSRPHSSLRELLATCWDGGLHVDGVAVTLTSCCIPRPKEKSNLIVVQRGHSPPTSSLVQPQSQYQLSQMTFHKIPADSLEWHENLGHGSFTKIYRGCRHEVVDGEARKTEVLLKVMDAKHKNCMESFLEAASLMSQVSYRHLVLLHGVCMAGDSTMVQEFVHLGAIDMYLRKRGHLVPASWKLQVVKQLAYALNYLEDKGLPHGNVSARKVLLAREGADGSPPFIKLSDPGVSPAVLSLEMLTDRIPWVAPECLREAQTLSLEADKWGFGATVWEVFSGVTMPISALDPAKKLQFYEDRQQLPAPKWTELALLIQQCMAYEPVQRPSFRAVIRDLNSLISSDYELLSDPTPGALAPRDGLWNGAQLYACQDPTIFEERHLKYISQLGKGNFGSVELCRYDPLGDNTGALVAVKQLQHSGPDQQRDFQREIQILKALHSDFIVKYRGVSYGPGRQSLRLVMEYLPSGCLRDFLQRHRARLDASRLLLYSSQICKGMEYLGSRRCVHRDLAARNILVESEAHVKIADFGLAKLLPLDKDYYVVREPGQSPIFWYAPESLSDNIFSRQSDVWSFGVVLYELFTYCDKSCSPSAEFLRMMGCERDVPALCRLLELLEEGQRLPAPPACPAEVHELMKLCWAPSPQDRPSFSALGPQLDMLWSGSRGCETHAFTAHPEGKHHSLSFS
Summary of the method: as §1

Tyk2 = Tyk2 (Homo sapiens (Human), UniProt P29597); assay: Biochemical Tyk2 kinase assay (LanthaScreen)
Sequence of Tyk2 (P29597 whole entry): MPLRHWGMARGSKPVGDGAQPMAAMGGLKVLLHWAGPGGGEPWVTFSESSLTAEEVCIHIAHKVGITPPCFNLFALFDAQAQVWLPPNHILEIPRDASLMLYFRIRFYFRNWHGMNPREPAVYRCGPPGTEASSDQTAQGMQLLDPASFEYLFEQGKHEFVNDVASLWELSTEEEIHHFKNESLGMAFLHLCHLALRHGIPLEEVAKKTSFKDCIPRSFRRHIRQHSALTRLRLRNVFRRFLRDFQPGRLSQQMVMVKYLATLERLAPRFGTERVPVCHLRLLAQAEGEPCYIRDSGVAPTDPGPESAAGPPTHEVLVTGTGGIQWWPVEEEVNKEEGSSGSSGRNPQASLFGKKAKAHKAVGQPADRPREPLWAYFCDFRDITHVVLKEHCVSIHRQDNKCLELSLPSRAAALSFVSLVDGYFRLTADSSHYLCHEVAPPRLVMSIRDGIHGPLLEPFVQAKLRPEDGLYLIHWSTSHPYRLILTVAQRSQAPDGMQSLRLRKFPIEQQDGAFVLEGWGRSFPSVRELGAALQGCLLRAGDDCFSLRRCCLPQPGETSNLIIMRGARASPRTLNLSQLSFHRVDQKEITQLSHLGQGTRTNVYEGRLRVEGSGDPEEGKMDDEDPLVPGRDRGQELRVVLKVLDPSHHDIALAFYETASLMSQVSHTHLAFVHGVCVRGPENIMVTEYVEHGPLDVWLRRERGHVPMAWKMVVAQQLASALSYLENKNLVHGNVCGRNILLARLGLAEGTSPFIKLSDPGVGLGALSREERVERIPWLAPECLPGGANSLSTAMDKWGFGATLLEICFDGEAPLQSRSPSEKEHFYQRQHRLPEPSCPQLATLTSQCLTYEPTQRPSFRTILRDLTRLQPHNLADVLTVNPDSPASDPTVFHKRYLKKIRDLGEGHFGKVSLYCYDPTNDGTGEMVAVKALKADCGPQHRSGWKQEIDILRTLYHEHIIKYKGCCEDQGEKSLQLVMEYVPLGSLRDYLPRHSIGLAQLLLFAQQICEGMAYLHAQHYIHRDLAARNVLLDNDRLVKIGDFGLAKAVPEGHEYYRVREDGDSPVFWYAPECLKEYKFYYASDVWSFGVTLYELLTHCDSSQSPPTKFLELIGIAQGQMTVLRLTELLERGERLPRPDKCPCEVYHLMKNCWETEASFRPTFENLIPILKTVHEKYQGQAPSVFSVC
Summary of the method: as §1

[1] = system: IL-2 stimulated STAT5 phosphorylation in Tall-1 human T cell line (JAK3); assay: Cellular JAK3 potency assay: inhibition of IL-2 stimulated pSTAT5 in Tall-1 T cells; type: cell-based; conditions: IL-2 stimulated pSTAT5, Tall-1 T cells
Summary of the method: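 Tall-1 cells, 45,000 per well, preincubated 1 hour with compound at 37 °C, then stimulated 30 minutes with IL-2 at 300 ng/ml final. pSTAT5 (Tyr694/699) in lysates quantified by AlphaLISA SureFire Ultra. pIC50 derived from inhibition curves, given as mean with SD.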

Caco-2 cell monolayers = assay: Caco-2 permeation assay; type: in vitro ADME; conditions: 5 μM, A-B direction, with Verapamil (25 μM)
Procedure: Assay 4: Caco-2 Permeation Assay
The Caco-2 permeation assay was performed to model the ability of test compounds to pass through the intestine and get into the blood stream after oral administration. The rate at which test compounds in solution permeate a cell monolayer designed to mimic the tight junction of human small intestinal monolayers was determined.
CacoReady 24-well transwell plates were obtained from ADMEcell (Alameda, Calif.). The compounds were evaluated at a concentration of 5 μM from 10 mM DMSO stock solutions in duplicate (n=2). The passive permeability of the compounds tested was evaluated using Caco-2 cell monolayers along with Verapamil (25 μM) to inhibit P-gp transport proteins in the apical to basolateral (A-B) direction. The experiment was conducted in a 37° C., 5% CO2 incubator. Caco-2 culture media consisted of standard filtered DMEM, FCS 10%, L-Glutamine 1% and PenStrep 1%. Basal assay plate was prepared by adding 750 μL of transport buffer to A-B wells. A CacoReady™ plate was prepared by removing the Caco-2 media from the apical wells and replacing with fresh transport media (200 μL repeated for a total of 3 washes). Blank media (200 μL) was then replaced with diluted compound for A-B wells. To begin the incubation, the basal plate was removed from the incubator and the apical section was added on top of it. Samples (40 μL) were collected from the apical and basal compartments for time zero (t0). Samples were collected again after 120 minutes (t120) from the apical and basal compartments. All samples were diluted and prepared for bioanalysis by LC-MS/MS. The permeation coefficient (Kp, mean A to B+ Verapamil Papparent) in cm/sec was calculated as dQ (flux)/(dt×Area×concentration).
In this assay, a Kp value less than about 5×10^−6 cm/sec is considered favorable to minimize systemic exposure and target the colon. A Kp value less than about 10×10^−6 cm/sec may also be sufficient to minimize systemic exposure and target the colon.

Sequence of JAK1 (P23458 whole entry): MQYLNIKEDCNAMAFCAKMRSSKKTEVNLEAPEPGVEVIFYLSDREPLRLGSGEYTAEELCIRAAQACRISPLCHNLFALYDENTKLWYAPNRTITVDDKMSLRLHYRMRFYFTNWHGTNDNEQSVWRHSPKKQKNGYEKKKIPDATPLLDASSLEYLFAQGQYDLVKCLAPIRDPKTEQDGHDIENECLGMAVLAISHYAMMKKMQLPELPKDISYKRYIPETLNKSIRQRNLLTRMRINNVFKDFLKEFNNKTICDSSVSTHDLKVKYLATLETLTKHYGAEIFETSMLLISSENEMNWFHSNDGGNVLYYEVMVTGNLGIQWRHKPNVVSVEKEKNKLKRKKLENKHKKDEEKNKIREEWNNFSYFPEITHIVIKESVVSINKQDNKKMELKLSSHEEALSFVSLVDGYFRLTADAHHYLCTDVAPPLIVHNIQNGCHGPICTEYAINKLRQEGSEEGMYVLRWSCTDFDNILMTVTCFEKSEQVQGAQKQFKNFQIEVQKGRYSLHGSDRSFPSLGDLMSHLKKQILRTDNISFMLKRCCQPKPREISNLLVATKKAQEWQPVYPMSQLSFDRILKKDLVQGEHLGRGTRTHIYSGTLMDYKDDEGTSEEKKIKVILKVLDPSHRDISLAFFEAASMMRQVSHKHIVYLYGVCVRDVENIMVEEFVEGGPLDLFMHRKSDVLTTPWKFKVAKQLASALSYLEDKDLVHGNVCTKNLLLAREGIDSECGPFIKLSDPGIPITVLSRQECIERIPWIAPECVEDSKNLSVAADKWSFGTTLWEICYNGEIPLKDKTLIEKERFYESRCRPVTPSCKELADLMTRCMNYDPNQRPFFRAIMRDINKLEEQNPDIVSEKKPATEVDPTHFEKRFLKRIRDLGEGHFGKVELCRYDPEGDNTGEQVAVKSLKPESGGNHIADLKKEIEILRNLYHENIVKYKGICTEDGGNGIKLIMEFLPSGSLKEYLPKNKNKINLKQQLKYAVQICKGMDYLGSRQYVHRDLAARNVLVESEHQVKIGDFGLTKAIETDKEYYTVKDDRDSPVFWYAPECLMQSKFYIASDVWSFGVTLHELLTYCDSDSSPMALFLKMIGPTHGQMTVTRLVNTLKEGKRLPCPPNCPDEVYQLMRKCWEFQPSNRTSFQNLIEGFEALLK

| Structure (SMILES) | JAK 1 (pKi) (JAK1) | JAK 2 (pKi) (JAK2) | JAK 3 (pKi) (JAK3) | JAK3 (pKi)-JAK1 (pKi) (JAK3) | Tyk 2 (pKi) (Tyk2) | Tall-1 (pIC50) [1] | Caco Kp (Caco-2 cell monolayers) |
| --- | --- | --- | --- | --- | --- | --- | --- |
| C=CC(=O)N1CC(CCn2c(=O)ccc3cnc(Nc4ccc(N5CCN(C(C)(C)C)CC5)cc4)nc32)C1 [Example 62] | E (E represents a pKi value of 7 or below (Ki of 100 nM or above)) | E (E represents a pKi value of 7 or below (Ki of 100 nM or above)) | B (B represents pKi value between 9 and 10 (Ki between 1 nM and 0.1 nM)) | A (A represents a value of 3 or above) | E (E represents a pKi value of 7 or below (Ki of 100 nM or above)) | A (A represents a pIC50 value≥7.5 (IC50≤32 nM)) | B (B represents a value between 5×10^−6 and 10×10^−6 cm/sec) |
| C=CC(=O)N1CC(CCn2c(=O)ccc3cnc(Nc4cnn(CCF)c4)nc32)C1 [Example 63] | E (E represents a pKi value of 7 or below (Ki of 100 nM or above)) | E (E represents a pKi value of 7 or below (Ki of 100 nM or above)) | B (B represents pKi value between 9 and 10 (Ki between 1 nM and 0.1 nM)) | A (A represents a value of 3 or above) | E (E represents a pKi value of 7 or below (Ki of 100 nM or above)) | B (B represents a pC50 value between 6.7 (included) and 7.5 (IC50 between 200 nM and 32 nM)) | A (A represents a value below 5×10^−6 cm/sec) |
| C=CC(=O)N1CC(CCn2c(=O)ccc3cnc(Nc4ccc(-n5cccn5)cc4)nc32)C1 [Example 66] | E (E represents a pKi value of 7 or below (Ki of 100 nM or above)) | E (E represents a pKi value of 7 or below (Ki of 100 nM or above)) | B (B represents pKi value between 9 and 10 (Ki between 1 nM and 0.1 nM)) | A (A represents a value of 3 or above) | E (E represents a pKi value of 7 or below (Ki of 100 nM or above)) | B (B represents a pC50 value between 6.7 (included) and 7.5 (IC50 between 200 nM and 32 nM)) | C (C represents a value between 10×10^−6 and 30×10^−6 cm/sec) |
| C=CC(=O)N1CC(CCn2c(=O)ccc3cnc(Nc4ccc(-n5ccnn5)cc4)nc32)C1 [Example 67] | E (E represents a pKi value of 7 or below (Ki of 100 nM or above)) | E (E represents a pKi value of 7 or below (Ki of 100 nM or above)) | B (B represents pKi value between 9 and 10 (Ki between 1 nM and 0.1 nM)) | A (A represents a value of 3 or above) | E (E represents a pKi value of 7 or below (Ki of 100 nM or above)) | B (B represents a pC50 value between 6.7 (included) and 7.5 (IC50 between 200 nM and 32 nM)) | B (B represents a value between 5×10^−6 and 10×10^−6 cm/sec) |
| C=CC(=O)N1CC(CCn2c(=O)ccc3cnc(Nc4ccc(NS(C)(=O)=O)cc4)nc32)C1 [Example 69] | E (E represents a pKi value of 7 or below (Ki of 100 nM or above)) | E (E represents a pKi value of 7 or below (Ki of 100 nM or above)) | A (A represents a pKi value≥10 (Ki≤0.1 nM)) | A (A represents a value of 3 or above) | E (E represents a pKi value of 7 or below (Ki of 100 nM or above)) | B (B represents a pC50 value between 6.7 (included) and 7.5 (IC50 between 200 nM and 32 nM)) | A (A represents a value below 5×10^−6 cm/sec) |
| C=CC(=O)N1CC(CCn2c(=O)ccc3cnc(Nc4ccc(N5CCN(C(=O)COC)CC5)cc4)nc32)C1 [Example 70] | E (E represents a pKi value of 7 or below (Ki of 100 nM or above)) | E (E represents a pKi value of 7 or below (Ki of 100 nM or above)) | B (B represents pKi value between 9 and 10 (Ki between 1 nM and 0.1 nM)) | A (A represents a value of 3 or above) | E (E represents a pKi value of 7 or below (Ki of 100 nM or above)) | B (B represents a pC50 value between 6.7 (included) and 7.5 (IC50 between 200 nM and 32 nM)) | A (A represents a value below 5×10^−6 cm/sec) |
| C=CC(=O)N1CC(CCn2c(=O)ccc3cnc(Nc4ccc(N5CCN(C(=O)OC)CC5)cc4)nc32)C1 [Example 71] | E (E represents a pKi value of 7 or below (Ki of 100 nM or above)) | E (E represents a pKi value of 7 or below (Ki of 100 nM or above)) | B (B represents pKi value between 9 and 10 (Ki between 1 nM and 0.1 nM)) | A (A represents a value of 3 or above) | E (E represents a pKi value of 7 or below (Ki of 100 nM or above)) | B (B represents a pC50 value between 6.7 (included) and 7.5 (IC50 between 200 nM and 32 nM)) | B (B represents a value between 5×10^−6 and 10×10^−6 cm/sec) |
| C=CC(=O)N1CC(CCn2c(=O)ccc3cnc(Nc4ccc(N5CCN(C(=O)CC#N)CC5)cc4)nc32)C1 [Example 72] | E (E represents a pKi value of 7 or below (Ki of 100 nM or above)) | E (E represents a pKi value of 7 or below (Ki of 100 nM or above)) | B (B represents pKi value between 9 and 10 (Ki between 1 nM and 0.1 nM)) | A (A represents a value of 3 or above) | E (E represents a pKi value of 7 or below (Ki of 100 nM or above)) | B (B represents a pC50 value between 6.7 (included) and 7.5 (IC50 between 200 nM and 32 nM)) | A (A represents a value below 5×10^−6 cm/sec) |
| C=CC(=O)N1CC(CCn2c(=O)ccc3cnc(Nc4cccc(N5CCN(C(C)=O)CC5)c4)nc32)C1 [Example 78] | E (E represents a pKi value of 7 or below (Ki of 100 nM or above)) | E (E represents a pKi value of 7 or below (Ki of 100 nM or above)) | B (B represents pKi value between 9 and 10 (Ki between 1 nM and 0.1 nM)) | A (A represents a value of 3 or above) | E (E represents a pKi value of 7 or below (Ki of 100 nM or above)) | B (B represents a pC50 value between 6.7 (included) and 7.5 (IC50 between 200 nM and 32 nM)) | A (A represents a value below 5×10^−6 cm/sec) |
| C=CC(=O)N1CCN(CCn2c(=O)ccc3cnc(Nc4ccc(CN5CCOCC5)cc4)nc32)CC1 [Example 80] | E (E represents a pKi value of 7 or below (Ki of 100 nM or above)) | E (E represents a pKi value of 7 or below (Ki of 100 nM or above)) | B (B represents pKi value between 9 and 10 (Ki between 1 nM and 0.1 nM)) | A (A represents a value of 3 or above) | E (E represents a pKi value of 7 or below (Ki of 100 nM or above)) | B (B represents a pC50 value between 6.7 (included) and 7.5 (IC50 between 200 nM and 32 nM)) | C (C represents a value between 10×10^−6 and 30×10^−6 cm/sec) |
